Test results reported in ChEMBL document CHEMBL1136072, “Structural features of piperazinyl-linked ciprofloxacin dimers required for activity against drug-resistant strains of Staphylococcus aureus” (2003).

Columns and labels:
Format in all cases: functional
Staphylococcus aureus [1] = experiment: Minimum inhibitory concentration required against Staphylococcus aureus GISA 992, vancomycin-insensitive SA.
Staphylococcus aureus [2] = experiment: Minimum inhibitory concentration required against Staphylococcus aureus MRSA 494, methicillin resistant SA isolate
Staphylococcus aureus [3] = experiment: Minimum inhibitory concentration required against Staphylococcus aureus SA 1199-3, laboratory-derived mutant of SA 1199 that inducibly overexpresses norA, no gyrase or topoisomerase IV mutations
Staphylococcus aureus [4] = experiment: Minimum inhibitory concentration required against Staphylococcus aureus SA-1199, wild-type isolate
Staphylococcus aureus [5] = experiment: Minimum inhibitory concentration required against Staphylococcus aureus SA 1199B, constitutively overexpresses norA and harbors a topoisomerase IV A subunit substitution (A116E); set-up: unit not given beside the values

SMILES	MIC (Staphylococcus aureus [1])	MIC (Staphylococcus aureus [2])	MIC (Staphylococcus aureus [3])	MIC (Staphylococcus aureus [4])	MIC (Staphylococcus aureus [5])
O=C(O)c1cn(C2CC2)c2cc(N3CCN(/C=C/CN4CCN(c5cc6c(cc5F)c(=O)c(C(=O)O)cn6C5CC5)CC4)CC3)c(F)cc2c1=O	>16	0.125	0.06	0.03	
CCn1cc(C(=O)O)c(=O)c2cnc(N3CCN(Cc4ccc(CN5CCN(c6cc7c(cc6F)c(=O)c(C(=O)O)cn7C6CC6)CC5)cc4)CC3)nc21	2	0.125		<0.03	
CN1CCN(c2cc3c(cc2F)c(=O)ccn3C2CC2)CC1	>16	>16	>16	>16	>16
O=C(O)c1cn(C2CC2)c2cc(N3CCN(Cc4ccc(CN5CCN(c6cc7c(cc6F)c(=O)ccn7C6CC6)CC5)cc4)CC3)c(F)cc2c1=O	>16	1	0.5	0.25	0.5
O=C(O)c1cn(C2CC2)c2cc(N3CCN(Cc4ccc(CN5CCN(c6ccccc6F)CC5)cc4)CC3)c(F)cc2c1=O	16			0.5	
O=C(O)c1cn(C2CC2)c2cc(N3CCN(Cc4ccc(CN5CCNCC5)cc4)CC3)c(F)cc2c1=O	>16	0.25		0.5	1
O=C(O)c1cn(C2CC2)c2cc(N3CCN(/C=C/CN4CCNCC4)CC3)c(F)cc2c1=O	>16	2	2	1	2
CN1CCN(c2cc3c(cc2F)c(=O)c(C(=O)O)cn3C2CC2)CC1	32	0.5	1	0.125	8
O=C(O)c1cn(C2CC2)c2cc(N3CCN(Cc4ccc(CN5CCN(c6cc7c(cc6F)c(=O)c(C(=O)O)cn7C6CC6)CC5)cc4)CC3)c(F)cc2c1=O	4			0.125	
CCn1cc(C(=O)O)c(=O)c2cnc(N3CCNCC3)nc21 [PIPEMIDIC ACID]	>16			>16	
O=C(O)c1cn(C2CC2)c2cc(N3CCN(/C=C/CN4CCN(c5ccccc5F)CC4)CC3)c(F)cc2c1=O	>16			0.5	
